Data published in patent publication US8143393B2, “Substituted 4-amino-pyrrolotriazine derivatives useful for treating hyper-proliferative disorders and diseases associated with angiogenesis” (Bayer HealthCare LLC, priority 2005, dated 2012).

How the values were obtained:
[1] = test system: H460; assay: Tumor cell proliferation (H460 proliferation assay); format: cell-based; details: Homo sapiens, NCI-H460, 72 h, Alamar Blue
Description: (§1) Human tumor cells (e.g., HCT116 or MDA-MB-231 cells), were seeded in a Costar 96-well plate at 3.0×10^3 cells/well and grown in 150 μl of RPMI complete media (Invitrogen Corporation, Grand Island, N.Y.) containing 10% fetal bovine serum (Hyclone, Logan, Utah) at 37° C. for 16 h in an incubator with 5% CO2. To each well, 50 μl of additional growth media containing 40 μM to 18 nM concentrations of compound with 0.4% DMSO was added. Cells were grown for another 72 h at 37° C. with 5% CO2. 20 μl of Alamar Blue (Trek Diagnostic Systems, Inc., Cleveland, Ohio) reagent was added to each well and incubated for 3 h at 37° C. Plates were read in a SpectraMax Gemini (Molecular Devices, CA) with 544 nm excitation and 590 nm emission wavelength. IC50 values were determined by linear regression analysis of log drug concentration versus percent inhibition.

[2] = molecular target: T1, FGFR-1 (Homo sapiens, UniProt P11362); assay: FGFR-1 TR-FRET biochemical assay; details: 0.6 uM ATP, 5 nM FGFR1-GST; bounds given in nM
T1 construct: GST; made in house
Method in brief: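 In this LANCE time-resolved FRET format, compounds at final 10 μM–0.128 nM (1% DMSO, 1:5 series) were preincubated before enzyme start. Reactions ran for one hour at room temperature with 0.6 uM ATP, 25 nM biotinylated poly GT and 5 nM GST-tagged FGFR1. Inhibition was calculated from the 665/615 nm ratio minus the ATP-free background.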

[3] = test system: MDA-MB-231 cells; assay: Tumor cell proliferation (MDA-MB-231 proliferation assay); format: cell-based; details: Homo sapiens, MDA-MB-231, 72 h, Alamar Blue
Description: as §1

[4] = test system: HCT116 cells; assay: Tumor cell proliferation (HCT116 proliferation assay); format: cell-based; details: Homo sapiens, HCT-116, 72 h, Alamar Blue
Description: as §1

[5] = test system: histone 3 phosphorylation in colon carcinoma (HCT116); assay: p-Histone3 assay; format: cell-based; details: Homo sapiens, HCT-116, 24 h, HCT116, 24 h treatment
Description: Compounds were assayed for the inhibition of histone 3 phosphorylation in colon carcinoma (HCT116). Briefly, 20,000 cells/well were seeded in a 96-well black-walled, poly-d-lysine plates in RPMI+10% FBS and incubated at 37° C. in 5% CO2 overnight. The following day, the cells were treated with compounds for 24 hours at 37° C. Following compound treatment; plates were centrifuged at 1000 rpm for 2 minutes and washed twice with 100 μl of cold sterile TBS. Cells were then fixed with cold 3.7% formaldehyde in TBS (4° C. for 1 hour) and then permeabolized with 0.1% Triton-X-100 in TBS (room temperature for 30 minutes). Plates were then washed with of 0.25% BSA-TBS and blocked with BSA solution for 1 hour at room temperature while shaking. The supernatant was removed and replaced with diluted primary antibody (anti-phospho-histone 3, serine 10, Cell Signaling) at 1:250 in 0.25% BSA-TBS and incubated overnight at 4° C. The plates were washed and treated with diluted secondary antibody (anti-rabbit Eu-labeled) at 1:10000 in 0.25% BSA-TBS (room temperature for 1 hour). The antibody solution was removed from each well and washed eight times. The wash buffer was replaced with 50 μl pre-warmed enhancement solution and mixed on the orbital shaker for 10 minutes. Fluorescence was detected with a Victor V Fluorescence Detector. The data are expressed as percent inhibition: % inhibition=100−((Signal with inhibitor−background)/(Signal without inhibitor−background))−100.

[6] = lower bound of the bin 'greater than 500 nM but less than 4 μM'
[7] = upper bound of the bin 'greater than 500 nM but less than 4 μM'
[8] = lower bound of the bin 'greater than 500 nM but less than 3 μM'
[9] = upper bound of the bin 'greater than 500 nM but less than 3 μM'
[10] = lower bound of the bin 'greater than 500 nM but less than 5 μM'

T1 sequence (P11362 22-822): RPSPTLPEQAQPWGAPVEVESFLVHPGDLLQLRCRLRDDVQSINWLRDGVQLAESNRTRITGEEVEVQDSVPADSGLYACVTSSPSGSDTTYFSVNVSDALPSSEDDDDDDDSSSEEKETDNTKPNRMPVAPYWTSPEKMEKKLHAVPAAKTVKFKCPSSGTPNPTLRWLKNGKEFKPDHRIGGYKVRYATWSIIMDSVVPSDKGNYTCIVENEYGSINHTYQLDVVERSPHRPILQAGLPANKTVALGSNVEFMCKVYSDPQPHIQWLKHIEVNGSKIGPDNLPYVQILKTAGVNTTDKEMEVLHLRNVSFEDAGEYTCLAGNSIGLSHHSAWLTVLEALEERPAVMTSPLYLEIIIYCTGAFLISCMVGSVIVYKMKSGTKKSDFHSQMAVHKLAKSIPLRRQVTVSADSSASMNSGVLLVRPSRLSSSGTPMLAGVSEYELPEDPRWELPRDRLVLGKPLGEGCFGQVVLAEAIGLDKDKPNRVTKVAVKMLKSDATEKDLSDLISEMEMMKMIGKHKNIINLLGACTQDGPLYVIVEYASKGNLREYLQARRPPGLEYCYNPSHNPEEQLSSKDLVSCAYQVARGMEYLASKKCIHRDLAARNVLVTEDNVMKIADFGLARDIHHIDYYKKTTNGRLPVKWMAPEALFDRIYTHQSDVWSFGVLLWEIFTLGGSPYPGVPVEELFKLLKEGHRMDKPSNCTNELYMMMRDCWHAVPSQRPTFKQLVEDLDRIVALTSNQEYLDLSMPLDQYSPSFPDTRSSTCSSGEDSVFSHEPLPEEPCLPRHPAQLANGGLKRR

| Structure (SMILES) | IC50 [1, 6] | IC50 [1, 7] | IC50 [2] | IC50 [3, 8] | IC50 [3, 9] | IC50 [4, 6] | IC50 [4, 7] | IC50 ([5]; bounds given in μM) | IC50 [5, 10] |
| --- | --- | --- | --- | --- | --- | --- | --- | --- | --- |
| Nc1ncnn2c(CN3CCOCC3)cc(-c3ccc(NC(=O)Nc4cc(C(F)(F)F)ccc4F)c(F)c3)c12 [Example 1] | > 500 nM | < 4000 nM | < 10 nM |  |  |  |  |  |  |
| Nc1ncnn2c(CN3CCOCC3)cc(-c3ccc(NC(=O)Nc4cc(C(F)(F)F)ccn4)cc3)c12 [Example 3, N-{4-[4-amino-7-(morpholin-4-ylmethyl)pyrrolo[2,1-f][1,2,4]triazin-5-yl]phenyl}-N′-[4-(trifluoromethyl)pyridin-2-yl]urea] | > 500 nM | < 4000 nM | < 10 nM | > 500 nM | < 3000 nM | > 500 nM | < 4000 nM |  |  |
| Nc1ncnn2c(CN3CCOCC3)cc(-c3ccc(NC(=O)Nc4cc(C(F)(F)F)ccc4F)cc3)c12 [Example 4, N-{4-[4-amino-7-(morpholin-4-ylmethyl)-pyrrolo[2,1-f][1,2,4]triazin-5-yl]phenyl}-N′-[2-fluoro-5-(trifluoromethyl)phenyl]urea] |  |  | < 10 nM | > 500 nM | < 3000 nM | > 500 nM | < 4000 nM | < 5 µM | > 0.5 µM |
| Nc1ncnn2c(CN3CCOCC3)cc(-c3ccc(NC(=O)Nc4cccc(C(F)(F)F)c4)cc3)c12 [Example 5, N-{4-[4-amino-7-(morpholin-4-ylmethyl)-pyrrolo[2,1-f][1,2,4]triazin-5-yl]phenyl}-N′-[3-(trifluoromethyl)phenyl]urea] | > 500 nM | < 4000 nM |  | > 500 nM | < 3000 nM | > 500 nM | < 4000 nM |  |  |
| Nc1ncnn2c(CN3CCOCC3)cc(-c3ccc(NC(=O)Nc4ccc(F)c(C(F)(F)F)c4)cc3)c12 [Example 6, N-{4-[4-amino-7-(morpholin-4-ylmethyl)-pyrrolo[2,1-f][1,2,4]triazin-5-yl]phenyl}-N′-[4-fluoro-3-(trifluoromethyl)phenyl]urea] | > 500 nM | < 4000 nM | < 10 nM | > 500 nM | < 3000 nM | > 500 nM | < 4000 nM |  |  |
| Nc1ncnn2c(CN3CCOCC3)cc(-c3ccc(NC(=O)Nc4cc(C(F)(F)F)ccn4)c(F)c3)c12 [Example 8, N-{4-[4-amino-7-(morpholin-4-ylmethyl)pyrrolo[2,1-f][1,2,4]triazin-5-yl]-2-fluorophenyl}-N′-[4-(trifluoromethyl)pyridin-2-yl]urea] | > 500 nM | < 4000 nM | < 10 nM |  |  |  |  |  |  |
| Nc1ncnn2c(CN3CCOCC3)cc(-c3ccc(NC(=O)Nc4cc(C(F)(F)F)ccc4F)cc3F)c12 [Example 16, N-{4-[4-amino-7-(morpholin-4-ylmethyl)pyrrolo[2,1-f][1,2,4]triazin-5-yl]-3-fluorophenyl}-N′-[2-fluoro-5-(trifluoromethyl)phenyl]urea] |  |  | < 10 nM |  |  |  |  | < 5 µM | > 0.5 µM |
| Cc1cc(-c2cc(CN3CCOCC3)n3ncnc(N)c23)ccc1NC(=O)Nc1cc(C(F)(F)F)ccc1F [Example 25, N-{4-[4-amino-7-(morpholin-4-ylmethyl)pyrrolo[2,1-f][1,2,4]triazin-5-yl]-2-methylphenyl}-N′-[2-fluoro-5-(trifluoromethyl)phenyl]urea] |  |  | < 10 nM |  |  |  |  | < 5 µM | > 0.5 µM |
| COc1ccc(C(C)(C)C)cc1NC(=O)Nc1ccc(-c2cc(CN3CCOCC3)n3ncnc(N)c23)cc1 [Example 44, N-{4-[4-amino-7-(morpholin-4-ylmethyl)pyrrolo[2,1-f][1,2,4]triazin-5-yl]phenyl}-N′-(5-tert-butyl-2-methoxyphenyl)urea] |  |  | 10 to 100 nM |  |  |  |  | 5 to 10 µM |  |
| CS(=O)(=O)N1CCN(Cc2cc(-c3ccc(NC(=O)Nc4cc(C(F)(F)F)ccc4F)cc3)c3c(N)ncnn23)CC1 [Example 83, N-[4-(4-amino-7{[4(methylsulfonyl)-piperazin-1-yl]methyl}pyrrolo[2,1-f][1,2,4]triazin-5-yl)phenyl]-N′-[2-fluoro-5-(trifluoromethyl)phenyl]urea] |  |  | 10 to 100 nM |  |  |  |  | < 5 µM | > 0.5 µM |
